Laboratory results taken from patent US4446133A, “1-Phenyl-4-carbamoyl piperazine compounds, process for preparation thereof and utilizations thereof” (Misuitoatsu Chemicals, Inc., priority 1980, dated 1984).

What was measured:
[1] = test system: adjuvant arthritis; assay: Test 2: Adjuvant Arthritis Test; assay type: in vivo, SD male rats; settings: 5 mg/kg subcutaneous, 9 times, left hind leg, * P<0.05, ** P<0.01; for Swelling Ratio (average value ± standard variation), 15 days: control 84.4 ± 9.0; for Swelling Ratio (average value ± standard variation), 18 days: control 103.2 ± 9.7; for Swelling Ratio (average value ± standard variation), 21 days: control 107.5 ± 13.3
[2] = test system: Sarcoma 180; assay: Test 4: Test of Antitumor Effect to Sarcoma 180 by Oral Administration; assay type: in vivo, ICR female mice; settings: for D: average diameter of tumor, 2 weeks / D: average diameter of tumor, 4 weeks / D: average diameter of tumor, 6 weeks / D: average diameter of tumor, 8 weeks / D: average diameter of tumor, 10 weeks: 100 mg/kg oral once a day, 10 days; for D: average diameter of tumor, 2 weeks: control 10.6; for D: average diameter of tumor, 4 weeks: control 15.2; for D: average diameter of tumor, 6 weeks: control 22.4; for D: average diameter of tumor, 8 weeks: control 31.5; for D: average diameter of tumor, 10 weeks: control 37.6; for N: number of living mice, 0 weeks / N: number of living mice, 2 weeks / N: number of living mice, 4 weeks / N: number of living mice, 6 weeks / N: number of living mice, 8 weeks / N: number of living mice, 10 weeks: 100 mg/kg oral, of 6 mice; for N: number of living mice, 0 weeks / N: number of living mice, 2 weeks / N: number of living mice, 4 weeks / N: number of living mice, 6 weeks: control 6; for N: number of living mice, 8 weeks: control 5; for N: number of living mice, 10 weeks: control 1
Method: To the control group, a physiological saline solution was similarly administered. The dose of the compound was 100 mg per Kg of the body weight. The diameter D (mm) of the tumor was measured, and the average value and the number N of the living mice were determined to obtain results shown in Table 4.

[3] = test system: Sarcoma 180; assay: Test 5: Test of Antitumor Effect to Sarcoma 180 by Subcutaneous Administration; assay type: in vivo, ICR female mice; settings: 20 mg/kg subcutaneous; for D: average diameter of tumor, 2 weeks: control 10.8; for D: average diameter of tumor, 4 weeks: control 16.6; for D: average diameter of tumor, 6 weeks: control 20.3; for D: average diameter of tumor, 8 weeks: control 31.3; for D: average diameter of tumor, 10 weeks: control 40.5; for N: number of living mice, 0 weeks / N: number of living mice, 2 weeks / N: number of living mice, 4 weeks / N: number of living mice, 6 weeks / N: number of living mice, 8 weeks / N: number of living mice, 10 weeks: of 6 mice; for N: number of living mice, 0 weeks / N: number of living mice, 2 weeks / N: number of living mice, 4 weeks / N: number of living mice, 6 weeks: control 6; for N: number of living mice, 8 weeks: control 4; for N: number of living mice, 10 weeks: control 1
Method: To the control group, a physiological saline solution was similarly administered. […] The diameter D (mm) of the tumor was measured, and the average value and the number N of the living mice were determined to obtain results shown in Table 4.

Compound	Swelling Ratio (average value ± standard variation), 15 days [1] [%]	Swelling Ratio (average value ± standard variation), 18 days [1] [%]	Swelling Ratio (average value ± standard variation), 21 days [1] [%]	D: average diameter of tumor, 2 weeks [2] [mm]	D: average diameter of tumor, 4 weeks [2] [mm]	D: average diameter of tumor, 6 weeks [2] [mm]	D: average diameter of tumor, 8 weeks [2] [mm]	D: average diameter of tumor, 10 weeks [2] [mm]	N: number of living mice, 0 weeks [2]	N: number of living mice, 2 weeks [2]	N: number of living mice, 4 weeks [2]	N: number of living mice, 6 weeks [2]	N: number of living mice, 8 weeks [2]	N: number of living mice, 10 weeks [2]	D: average diameter of tumor, 2 weeks [3] [mm]	D: average diameter of tumor, 4 weeks [3] [mm]	D: average diameter of tumor, 6 weeks [3] [mm]	D: average diameter of tumor, 8 weeks [3] [mm]	D: average diameter of tumor, 10 weeks [3] [mm]	N: number of living mice, 0 weeks [3]	other results
CCN(CC)C(=O)N1CCN(c2ccccc2)CC1 [drawing 17]	47.0 ± 8.0	52.4 ± 9.2	59.8 ± 12.1	–	–	–	–	–	–	–	–	–	–	–	–	–	–	–	–	–	–
CCN(CC)C(=O)N1CCN(c2ccc(Cl)cc2)CC1 [drawing 18]	57.9 ± 11.1	55.7 ± 9.7	62.8 ± 10.9	–	–	–	–	–	–	–	–	–	–	–	–	–	–	–	–	–	–
CCN(CC)C(=O)N1CCN(c2ccc(OC)cc2)CC1 [drawing 19]	60.1 ± 11.3	57.1 ± 8.8	64.4 ± 10.5	–	–	–	–	–	–	–	–	–	–	–	–	–	–	–	–	–	–
CCOC(=O)c1ccc(N2CCN(C(=O)N(CC)CC)CC2)cc1 [drawing 20]	63.7 ± 12.0	60.4 ± 9.2	66.9 ± 11.1	–	–	–	–	–	–	–	–	–	–	–	–	–	–	–	–	–	–
CCN(CC)C(=O)N1CCN(c2ccc(C(=O)O)cc2)CC1 [drawing 21]	65.0 ± 10.2	64.6 ± 7.9	70.8 ± 10.7	–	–	–	–	–	–	–	–	–	–	–	–	–	–	–	–	–	–
CCN(CC)C(=O)N1CCN(c2ccc(C(C)=O)cc2)CC1 [drawing 22]	61.4 ± 10.4	62.2 ± 8.8	68.4 ± 12.0	–	–	–	–	–	–	–	–	–	–	–	–	–	–	–	–	–	–
CCN(CC)C(=O)N1CCN(c2ccccc2)CC1 [drawing 29]	–	–	–	7.8	6.6	3.7	0.9	0	6	6	6	6	6	6	–	–	–	–	–	–	–
CCN(CC)C(=O)N1CCN(c2ccc(Cl)cc2)CC1 [drawing 30]	–	–	–	7.1	5.8	3.0	0	0	6	6	6	6	6	6	–	–	–	–	–	–	–
CCN(CC)C(=O)N1CCN(c2ccc(OC)cc2)CC1 [drawing 31]	–	–	–	8.1	4.6	5.0	2.2	0.6	6	6	6	6	6	6	–	–	–	–	–	–	–
CCOC(=O)c1ccc(N2CCN(C(=O)N(CC)CC)CC2)cc1 [drawing 32]	–	–	–	9.2	7.4	4.8	3.2	0	6	6	6	6	6	6	–	–	–	–	–	–	–
CCN(CC)C(=O)N1CCN(c2ccc(C(=O)O)cc2)CC1 [drawing 33]	–	–	–	6.8	3.5	4.4	2.2	0	6	6	6	6	6	6	–	–	–	–	–	–	–
CCN(CC)C(=O)N1CCN(c2ccc(C(C)=O)cc2)CC1 [drawing 34]	–	–	–	8.4	4.7	5.1	6.6	0	6	6	6	6	6	6	–	–	–	–	–	–	–
CCN(CC)C(=O)N1CCN(c2ccccc2)CC1 [drawing 35]	–	–	–	–	–	–	–	–	–	–	–	–	–	–	2.9	4.1	4.8	1.0	0	6	N: number of living mice, 2 weeks [3]: 6; N: number of living mice, 4 weeks [3]: 6; N: number of living mice, 6 weeks [3]: 6; N: number of living mice, 8 weeks [3]: 6; N: number of living mice, 10 weeks [3]: 6
CCN(CC)C(=O)N1CCN(c2ccc(Cl)cc2)CC1 [drawing 36]	–	–	–	–	–	–	–	–	–	–	–	–	–	–	2.3	2.1	3.8	0	0	6	N: number of living mice, 2 weeks [3]: 6; N: number of living mice, 4 weeks [3]: 6; N: number of living mice, 6 weeks [3]: 6; N: number of living mice, 8 weeks [3]: 6; N: number of living mice, 10 weeks [3]: 6
CCN(CC)C(=O)N1CCN(c2ccc(OC)cc2)CC1 [drawing 37]	–	–	–	–	–	–	–	–	–	–	–	–	–	–	3.0	1.0	2.2	5.3	4.0	6	N: number of living mice, 2 weeks [3]: 6; N: number of living mice, 4 weeks [3]: 6; N: number of living mice, 6 weeks [3]: 6; N: number of living mice, 8 weeks [3]: 6; N: number of living mice, 10 weeks [3]: 6
CCOC(=O)c1ccc(N2CCN(C(=O)N(CC)CC)CC2)cc1 [drawing 38]	–	–	–	–	–	–	–	–	–	–	–	–	–	–	3.2	3.4	3.8	2.5	0.8	6	N: number of living mice, 2 weeks [3]: 6; N: number of living mice, 4 weeks [3]: 6; N: number of living mice, 6 weeks [3]: 6; N: number of living mice, 8 weeks [3]: 6; N: number of living mice, 10 weeks [3]: 6
CCN(CC)C(=O)N1CCN(c2ccc(C(=O)O)cc2)CC1 [drawing 39]	–	–	–	–	–	–	–	–	–	–	–	–	–	–	2.1	4.4	4.8	3.9	0	6	N: number of living mice, 2 weeks [3]: 6; N: number of living mice, 4 weeks [3]: 6; N: number of living mice, 6 weeks [3]: 6; N: number of living mice, 8 weeks [3]: 6; N: number of living mice, 10 weeks [3]: 6
CCN(CC)C(=O)N1CCN(c2ccc(C(C)=O)cc2)CC1 [drawing 40]	–	–	–	–	–	–	–	–	–	–	–	–	–	–	4.1	7.7	8.5	4.3	0	6	N: number of living mice, 2 weeks [3]: 6; N: number of living mice, 4 weeks [3]: 6; N: number of living mice, 6 weeks [3]: 6; N: number of living mice, 8 weeks [3]: 6; N: number of living mice, 10 weeks [3]: 6
